Test results reported in patent US8455475B2 (Gruenenthal GmbH, priority 2009, dated 2013).

Target: T1, rat B1R (bradykinin receptor 1) (Rattus norvegicus, UniProt P97583)
T1 construct: expressed in transfected cells; host or cells: CHO K1 cells
T1 sequence (P97583 1-337): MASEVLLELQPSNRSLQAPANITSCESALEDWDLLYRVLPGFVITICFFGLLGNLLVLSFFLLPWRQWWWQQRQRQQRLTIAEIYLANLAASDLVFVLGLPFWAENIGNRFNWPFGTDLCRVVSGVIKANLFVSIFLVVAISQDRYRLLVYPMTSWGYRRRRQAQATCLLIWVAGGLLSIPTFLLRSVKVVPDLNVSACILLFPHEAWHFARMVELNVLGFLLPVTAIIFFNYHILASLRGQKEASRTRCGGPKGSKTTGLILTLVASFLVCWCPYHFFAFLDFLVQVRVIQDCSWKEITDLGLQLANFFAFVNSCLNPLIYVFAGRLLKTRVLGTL
Assay: FLIPR Ca2+ assay (Fluo-4) on CHO K1 cells stably transfected with the B1R gene of the rat (rB1R cells): % inhibition at 10 μM / IC50, agonist Des-Arg9-bradykinin
Format: cell-based
Conditions: CHO-K1, rat B1R
Summary of the method: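 Peak fluorescence counts read on FLIPR (λex 488, λem 540 nm) after two additions: compound first, then agonist at EC80 after 10–20 min. Human line challenged with Lys-Des-Arg9-bradykinin, rat line with Des-Arg9-bradykinin. Suppression of Ca2+ inflow expressed as % of maximum inhibition.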

Compound	inhibition at 10 µM
O=C(NC1CCc2ccc(C(=O)N3CCC4(CC3)CCN(C(=O)c3ccc(F)cc3Cl)CC4)cc21)c1ccccc1Cl (stereo not shown) [IND_CC-599, 2-Chloro-N-[6-[9-(2-chloro-4-fluoro-benzoyl)-3,9-diazaspiro[5.5]undecane-3-carbonyl]-2,3-dihydro-1H-inden-1-yl]-benzamide]	96%
O=C(NC1CCc2ccc(C(=O)N3CCC4(CC3)CCN(C(=O)c3ccc(F)cc3F)CC4)cc21)c1ccccc1Cl (stereo not shown) [IND_CC-600, 2-Chloro-N-[6-[9-(2,4-difluoro-benzoyl)-3,9-diazaspiro[5.5]undecane-3-carbonyl]-2,3-dihydro-1H-inden-1-yl]-benzamide]	100%
Cn1nc(C(C)(C)C)cc1C(=O)N1CCC2(CCN(C(=O)c3ccc4c(c3)C(NC(=O)c3ccccc3Cl)CC4)CC2)CC1 (stereo not shown) [IND_CC-601, N-[6-[9-(5-tert-Butyl-2-methyl-2H-pyrazole-3-carbonyl)-3,9-diazaspiro-[5.5]undecane-3-carbonyl]-2,3-dihydro-1H-inden-1-yl]-2-chloro-benzamide]	77%
Cc1cc(C(=O)N2CCC3(CCN(C(=O)c4ccc5c(c4)C(NC(=O)c4ccccc4Cl)CC5)CC3)CC2)n(C(C)(C)C)n1 (stereo not shown) [IND_CC-602, N-[6-[9-(2-tert-Butyl-5-methyl-2H-pyrazole-3-carbonyl)-3,9-diazaspiro-[5.5]undecane-3-carbonyl]-2,3-dihydro-1H-inden-1-yl]-2-chloro-benzamide]	95%
O=C(c1ccc2c(c1)C(N(C(=O)c1ccccc1Cl)C1CC1)CC2)N1CCC2(CCN(C(=O)C3CC3)CC2)C1 (stereo not shown) [IND_CC-603, 2-Chloro-N-[6-[8-(cyclopropanecarbonyl)-2,8-diazaspiro[4.5]decane-2-carbonyl]-2,3-dihydro-1H-inden-1-yl]-N-cyclopropyl-benzamide]	75%
CC(C)(C)CC(=O)N1CCC2(CC1)CCN(C(=O)c1ccc3c(c1)C(N(C(=O)c1ccccc1Cl)C1CC1)CC3)C2 (stereo not shown) [IND_CC-604, 2-Chloro-N-cyclopropyl-N-[6-[8-(3,3-dimethyl-butanoyl)-2,8-diazaspiro[4.5]decane-2-carbonyl]-2,3-dihydro-1H-inden-1-yl]-benzamide]	94%
O=C(c1ccc2c(c1)C(N(C(=O)c1ccccc1Cl)C1CC1)CC2)N1CCC2(CCN(C(=O)c3ccc(F)cc3Cl)CC2)C1 (stereo not shown) [IND_CC-605, 2-Chloro-N-[6-[8-(2-chloro-4-fluoro-benzoyl)-2,8-diazaspiro[4.5]decane-2-carbonyl]-2,3-dihydro-1H-inden-1-yl]-N-cyclopropyl-benzamide]	66%
O=C(c1ccc2c(c1)C(N(C(=O)c1ccccc1Cl)C1CC1)CC2)N1CCC2(CCN(C(=O)c3ccc(F)cc3F)CC2)C1 (stereo not shown) [IND_CC-606, 2-Chloro-N-cyclopropyl-N-[6-[8-(2,4-difluoro-benzoyl)-2,8-diazaspiro[4.5]decane-2-carbonyl]-2,3-dihydro-1H-inden-1-yl]-benzamide]	66%
Cn1nc(C(C)(C)C)cc1C(=O)N1CCC2(CCN(C(=O)c3ccc4c(c3)C(N(C(=O)c3ccccc3Cl)C3CC3)CC4)C2)CC1 (stereo not shown) [IND_CC-607, N-[6-[8-(5-tert-Butyl-2-methyl-2H-pyrazole-3-carbonyl)-2,8-diazaspiro[4.5]decane-2-carbonyl]-2,3-dihydro-1H-inden-1-yl]-2-chloro-N-cyclopropyl-benzamide]	67%
O=C(NC1CCc2ccc(C(=O)N3CCC4(CC3)CCN(S(=O)(=O)c3ccc(Cl)s3)CC4)cc21)c1ccccc1Cl (stereo not shown) [IND_CC-608, 2-Chloro-N-[6-[9-[(5-chloro-thiophen-2-yl)sulfonyl]-3,9-diazaspiro[5.5]undecane-3-carbonyl]-2,3-dihydro-1H-inden-1-yl]-benzamide]	102%
O=C(NC1CCc2ccc(C(=O)N3CCC4(CC3)CCN(S(=O)(=O)c3ccc(F)cc3F)CC4)cc21)c1ccccc1Cl (stereo not shown) [IND_CC-609, 2-Chloro-N-[6-[9-[(2,4-difluoro-phenyl)sulfonyl]-3,9-diazaspiro[5.5]undecane-3-carbonyl]-2,3-dihydro-1H-inden-1-yl]-benzamide]	101%
N#Cc1cc(S(=O)(=O)N2CCC3(CCN(C(=O)c4ccc5c(c4)C(NC(=O)c4ccccc4Cl)CC5)CC3)CC2)ccc1F (stereo not shown) [IND_CC-610, 2-Chloro-N-[6-[9-[(3-cyano-4-fluoro-phenyl)sulfonyl]-3,9-diazaspiro[5.5]undecane-3-carbonyl]-2,3-dihydro-1H-inden-1-yl]-benzamide]	103%
N#Cc1ccccc1S(=O)(=O)N1CCC2(CCN(C(=O)c3ccc4c(c3)C(NC(=O)c3ccccc3Cl)CC4)CC2)CC1 (stereo not shown) [IND_CC-611, 2-Chloro-N-[6-[9-[(2-cyano-phenyl)sulfonyl]-3,9-diazaspiro[5.5]undecane-3-carbonyl]-2,3-dihydro-1H-inden-1-yl]-benzamide]	98%
Cn1ccc2c(S(=O)(=O)N3CCC4(CCN(C(=O)c5ccc6c(c5)C(NC(=O)c5ccccc5Cl)CC6)CC4)CC3)cccc21 (stereo not shown) [IND_CC-612, 2-Chloro-N-[6-[9-[(1-methyl-1H-indol-4-yl)sulfonyl]-3,9-diazaspiro[5.5]undecane-3-carbonyl]-2,3-dihydro-1H-inden-1-yl]-benzamide]	65%
CC(C)S(=O)(=O)N1CCC2(CCN(C(=O)c3ccc4c(c3)C(NC(=O)c3ccccc3Cl)CC4)CC2)CC1 (stereo not shown) [IND_CC-613, 2-Chloro-N-[6-[9-(isopropylsulfonyl)-3,9-diazaspiro[5.5]undecane-3-carbonyl]-2,3-dihydro-1H-inden-1-yl]-benzamide]	102%
Cn1ccc2cc(S(=O)(=O)N3CCC4(CCN(C(=O)c5ccc6c(c5)C(NC(=O)c5ccccc5Cl)CC6)CC4)CC3)ccc21 (stereo not shown) [IND_CC-614, 2-Chloro-N-[6-[9-[(1-methyl-1H-indol-5-yl)sulfonyl]-3,9-diazaspiro[5.5]undecane-3-carbonyl]-2,3-dihydro-1H-inden-1-yl]-benzamide]	67%
O=C(c1ccc2c(c1)C(N(C(=O)c1ccccc1Cl)C1CC1)CC2)N1CCC2(CCN(S(=O)(=O)c3ccc(Cl)s3)CC2)C1 (stereo not shown) [IND_CC-615, 2-Chloro-N-[6-[8-[(5-chloro-thiophen-2-yl)sulfonyl]-2,8-diazaspiro[4.5]-decane-2-carbonyl]-2,3-dihydro-1H-inden-1-yl]-N-cyclopropyl-benzamide]	67%
O=C(c1ccc2c(c1)C(N(C(=O)c1ccccc1Cl)C1CC1)CC2)N1CCC2(CCN(S(=O)(=O)c3ccc(F)cc3F)CC2)C1 (stereo not shown) [IND_CC-616, 2-Chloro-N-cyclopropyl-N-[6-[8-[(2,4-difluoro-phenyl)sulfonyl]-2,8-diazaspiro[4.5]decane-2-carbonyl]-2,3-dihydro-1H-inden-1-yl]-benzamide]	81%
N#Cc1cc(S(=O)(=O)N2CCC3(CCN(C(=O)c4ccc5c(c4)C(N(C(=O)c4ccccc4Cl)C4CC4)CC5)C3)CC2)ccc1F (stereo not shown) [IND_CC-617, 2-Chloro-N-[6-[8-[(3-cyano-4-fluoro-phenyl)sulfonyl]-2,8-diazaspiro[4.5]-decane-2-carbonyl]-2,3-dihydro-1H-inden-1-yl]-N-cyclopropyl-benzamide]	67%
N#Cc1ccccc1S(=O)(=O)N1CCC2(CCN(C(=O)c3ccc4c(c3)C(N(C(=O)c3ccccc3Cl)C3CC3)CC4)C2)CC1 (stereo not shown) [IND_CC-618, 2-Chloro-N-[6-[8-[(2-cyano-phenyl)sulfonyl]-2,8-diazaspiro[4.5]decane-2-carbonyl]-2,3-dihydro-1H-inden-1-yl]-N-cyclopropyl-benzamide]	61%
Cn1ccc2cc(S(=O)(=O)N3CCC4(CCN(C(=O)c5ccc6c(c5)C(N(C(=O)c5ccccc5Cl)C5CC5)CC6)C4)CC3)ccc21 (stereo not shown) [IND_CC-619, 2-Chloro-N-cyclopropyl-N-[6-[8-[(1-methyl-1H-indol-5-yl)sulfonyl]-2,8-diazaspiro[4.5]decane-2-carbonyl]-2,3-dihydro-1H-inden-1-yl]-benzamide]	57%
O=C(NC1CCc2ccc(C(=O)N3CCC4(CCN(Cc5ccc[nH]5)CC4)C3)cc21)c1cc(Cl)ccc1F (stereo not shown) [IND_CC-620, 5-Chloro-2-fluoro-N-[6-[8-(1H-pyrrol-2-yl-methyl)-2,8-diazaspiro[4.5]decane-2-carbonyl]-2,3-dihydro-1H-inden-1-yl]-benzamide]	54%
O=C(NC1CCc2ccc(C(=O)N3CCC4(CCN(Cc5ccc(F)c(F)c5)CC4)C3)cc21)c1cc(Cl)ccc1F (stereo not shown) [IND_CC-621, 5-Chloro-N-[6-[8-[(3,4-difluoro-phenyl)-methyl]-2,8-diazaspiro[4.5]decane-2-carbonyl]-2,3-dihydro-1H-inden-1-yl]-2-fluoro-benzamide]	67%
O=C(NC1CCc2ccc(C(=O)N3CCC4(CCN(Cc5ccc(F)cc5F)CC4)C3)cc21)c1cc(Cl)ccc1F (stereo not shown) [IND_CC-622, 5-Chloro-N-[6-[8-[(2,4-difluoro-phenyl)-methyl]-2,8-diazaspiro[4.5]decane-2-carbonyl]-2,3-dihydro-1H-inden-1-yl]-2-fluoro-benzamide]	69%
COc1ccc(CN2CCC3(CC2)CCN(C(=O)c2ccc4c(c2)C(NC(=O)c2cc(Cl)ccc2F)CC4)C3)cc1F (stereo not shown) [IND_CC-623, 5-Chloro-2-fluoro-N-[6-[8-[(3-fluoro-4-methoxy-phenyl)-methyl]-2,8-diazaspiro[4.5]decane-2-carbonyl]-2,3-dihydro-1H-inden-1-yl]-benzamide]	59%
